SMILES strings stand for the structures.

One test addresses T1, ERα (Homo sapiens, UniProt P03372).
T1 construct: host or cells: MCF7 cells
T1 sequence (P03372 1-595): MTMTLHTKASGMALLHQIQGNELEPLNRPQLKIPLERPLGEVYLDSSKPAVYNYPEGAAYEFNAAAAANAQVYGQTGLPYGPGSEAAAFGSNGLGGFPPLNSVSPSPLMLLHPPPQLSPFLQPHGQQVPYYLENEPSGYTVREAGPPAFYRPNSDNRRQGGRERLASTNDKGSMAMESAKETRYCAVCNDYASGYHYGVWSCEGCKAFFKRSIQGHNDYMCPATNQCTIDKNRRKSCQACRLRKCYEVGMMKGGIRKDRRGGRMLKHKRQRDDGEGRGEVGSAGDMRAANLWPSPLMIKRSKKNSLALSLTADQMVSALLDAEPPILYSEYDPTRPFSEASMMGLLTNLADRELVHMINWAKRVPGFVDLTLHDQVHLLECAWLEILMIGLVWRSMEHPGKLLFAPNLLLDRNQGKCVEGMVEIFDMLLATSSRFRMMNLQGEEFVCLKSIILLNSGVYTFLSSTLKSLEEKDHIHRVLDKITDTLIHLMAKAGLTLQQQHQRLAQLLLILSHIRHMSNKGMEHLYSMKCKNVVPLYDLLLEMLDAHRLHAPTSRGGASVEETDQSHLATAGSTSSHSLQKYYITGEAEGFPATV
The test can be described thus: Estrogen receptor degradation activity: breast cancer cell ERα in cell western assay (MCF7 cells). Type of test: cell-based. The conditions noted are these: 4 hours, final concentrations ranging from 0.3-0.0000018 μM, relative to fulvestrant 0.1 μM positive control. As for the experimental part: Test: Estrogen Receptor Degradation Activity
Said test involves measuring the in vitro degradation activity of the compounds of the invention.
The measurements of the degradation activities were made using a breast cancer cell ERα in cell western assay as described hereunder.
MCF7 cells (ATCC) were seeded in 384 wells microplate (collagen coated) at a concentration of 10000 cells/30 μL, per well in red phenol free MEM alpha medium (invitrogen) containing 5% charcoal dextran striped FBS. The following day, 9 points serial 1:5 dilution of each compound was added to the cells in 2.5 μL at final concentrations ranging either from 3-0.000018 μM (column «% Degradation at 3 μM in table 2) or from 0.3-0.0000018 μM (column «% Degradation at 0.3 μM in table 2), or 0.1 μM for fulvestrant (using as positive control). At 4 hours post compound addition the cells were fixed by adding 25 μL of formalin (final concentration 5% formalin containing 0.1% triton) for 10 minutes at room temperature and then washed twice with PBS. Then, 50 μL of LI-COR blocking buffer containing 0.1% Triton was added to plate for 30 minutes at room temperature. LI-COR blocking buffer was removed and cells were incubated overnight at cold room with 50 μL anti-ER rabbit monoclonal antibody (Thermo scientific MA1-39540) diluted at 1:1000 in LI-COR blocking buffer containing 0.1% tween-20. Wells which were treated with blocking buffer but no antibody were used as background control. Wells were washed twice with PBS (0.1% tween-20) and incubated at 37° C. for 60 minutes in LI-COR (0.1% tween-20) containing goat anti-rabbit antibody Alexa 488 (1:1000) and Syto-64 a DNA dye ([…]). Cells were then washed 3 times in PBS and scanned in ACUMEN explorer (TTP-Labtech). Integrated intensities in the green fluorescence and red fluorescence were measured to determine the levels of ERα and DNA respectively.
With `CC(C)(O)c1ccc(-c2ccc3c(c2)CCCC(c2cccc(F)c2Cl)=C3c2ccc(O[C@H]3CCN(CCCF)C3)cc2)cc1` [Example 98, (S)-2-(4-(8-(2-chloro-3-fluorophenyl)-9-(4-((1-(3-fluoropropyl)pyrrolidin-3-yl)oxy)phenyl)-6,7-dihydro-5H-benzo[7]annulen-3-yl)phenyl)propan-2-ol], the “% Degradation At 0.3 μM” value came out at 59%.

For the compound `O=C(O)c1ccccc1-c1ccc2c(c1)CCCC(c1ccc(Cl)cc1Cl)=C2c1ccc(O[C@H]2CCN(CCCF)C2)cc1` [Example 86, (S)-2-(8-(2,4-dichlorophenyl)-9-(4-((1-(3-fluoropropyl)pyrrolidin-3-yl)oxy)phenyl)-6,7-dihydro-5H-benzo[7]annulen-3-yl)benzoic acid], the “% Degradation At 0.3 μM” value amounted to 88%.

`CCOc1ccc(C2=C(c3ccc(O[C@H]4CCN(CCCF)C4)cc3)c3ccc(C(N)=O)cc3CCC2)c(F)n1` [Example 79, (S)-8-(6-ethoxy-2-fluoropyridin-3-yl)-9-(4-((1-(3-fluoropropyl)pyrrolidin-3-yl)oxy)phenyl)-6,7-dihydro-5H-benzo[7]annulene-3-carboxamide]: the “% Degradation At 0.3 μM” value was 91%.

The test is the same for the next values; noted with them: 4 hours, final concentrations ranging from 3-0.000018 μM, relative to fulvestrant 0.1 μM positive control.
For `O=C(Nc1ccc2c(c1)CCCC(c1ccc(Cl)cc1Cl)=C2c1ccc(O[C@H]2CCN(CCCF)C2)cc1)C1CC1` [Example 60, (S)—N-(8-(2,4-dichlorophenyl)-9-(4-((1-(3-fluoropropyl)pyrrolidin-3-yl)oxy)phenyl)-6,7-dihydro-5H-benzo[7]annulen-3-yl)cyclopropanecarboxamide], the “% Degradation At 3 μM” value turned out to be 74%.

In the case of `O=C(O)/C=C/c1ccc2c(c1)CCCC(c1ccc(Cl)cc1Cl)=C2c1ccc(O[C@H]2CCN(CCCF)C2)cc1` [Example 20, (S,E)-3-(8-(2,4-dichlorophenyl)-9-(4-((1-(3-fluoropropyl)pyrrolidin-3-yl)oxy)phenyl)-6,7-dihydro-5H-benzo[7]annulen-3-yl)acrylic acid], the “% Degradation At 3 μM” value is reported as 85%.

Turning to `COC(=O)c1cccc(-c2ccc3c(c2)CCCC(c2ccc(Cl)cc2Cl)=C3c2ccc(O[C@H]3CCN(CCCF)C3)cc2)c1` [Example 57, Methyl (S)-3-(8-(2,4-dichlorophenyl)-9-(4-((1-(3-fluoropropyl)pyrrolidin-3-yl)oxy)phenyl)-6,7-dihydro-5H-benzo[7]annulen-3-yl)benzoate], the “% Degradation At 3 μM” value is 87%.

For `FCCCN1CC[C@H](Oc2ccc(C3=C(c4ccc(Cl)cc4Cl)CCCc4cc(-c5noc(=S)[nH]5)ccc43)cc2)C1` [Example 34, (S)-3-(8-(2,4-dichlorophenyl)-9-(4-((1-(3-fluoropropyl)pyrrolidin-3-yl)oxy)phenyl)-6,7-dihydro-5H-benzo[7]annulen-3-yl)-1,2,4-oxadiazole-5(4H)-thione], the “% Degradation At 3 μM” value worked out at 66%.

For `FCCCN1CC[C@H](Oc2ccc(C3=C(c4ccc(Cl)cc4Cl)CCCc4cc(-c5n[nH]c(=S)o5)ccc43)cc2)C1` [Example 45, (S)-5-(8-(2,4-dichlorophenyl)-9-(4-((1-(3-fluoropropyl)pyrrolidin-3-yl)oxy)phenyl)-6,7-dihydro-5H-benzo[7]annulen-3-yl)-1,3,4-oxadiazole-2(3H)-thione], the “% Degradation At 3 μM” value worked out at 96%.

As for `O=C1CC(c2ccc3c(c2)CCCC(c2ccc(Cl)cc2Cl)=C3c2ccc(O[C@H]3CCN(CCCF)C3)cc2)=NO1` [Example 13, (S)-3-(8-(2,4-dichlorophenyl)-9-(4-((1-(3-fluoropropyl)pyrrolidin-3-yl)oxy)phenyl)-6,7-dihydro-5H-benzo[7]annulen-3-yl)isoxazol-5(4H)-one], the “% Degradation At 3 μM” value was determined as 76%.

Regarding `FCCCN1CC[C@H](Oc2ccc(C3=C(c4ccc(Cl)cc4Cl)CCCc4cc(-c5cc[nH]n5)ccc43)cc2)C1` [Example 51, (S)-3-(8-(2,4-dichlorophenyl)-9-(4-((1-(3-fluoropropyl)pyrrolidin-3-yl)oxy)phenyl)-6,7-dihydro-5H-benzo[7]annulen-3-yl)-1H-pyrazole], the “% Degradation At 3 μM” value is recorded as 81%.

The values are drawn from patent US12545640B2, “Substituted 6,7-dihydro-5H-benzo[7]annulene compounds, processes for their preparation and therapeutic uses thereof” (SANOFI, priority 2019, dated 2026).
